US10976320B2, “Methods for identifying and treating cancer patients” (The Board of Trustees of the Leland Stanford Junior …, priority 2013, dated 2021)

Key:
[1] = system: Brg1fl/fl(ERD) ESCs; assay: Cell cycle analysis (BrdU/7-AAD FACS) with or without caffeine; assay type: cell-based, mouse; conditions: caffeine added to media 2 h before BrdU incubation; FIG. 1D
Description: FIG. 1A-FIG. 1F. BRG1 associates with Topo2A and regulates its function. FIG. 1A, Anaphase bridges in Brg1^fl/fl and Brg1^fl/fl(ERD) ESCs. Data represent number of slides from four independent experiments±s.e.m. FIG. 1B, Co-immunoprecipitation of BRG1 and Topo2A from nuclear lysates. FIG. 1C, DNA content in Brg1^fl/fl and Brg1^fl/fl(ERD) ESCs after release from double thymidine block. FIG. 1D, Cell cycle analysis of Brg1^fl/fl and Brg1^fl/fl(ERD) ESCs with or without caffeine, an ATM/ATR inhibitor. FIG. 1E, Data represent five independent histone H3 serine 10 phosphorylation (H3(S10)P cell cycle analyses±s.e.m. FIG. 1F, Data represent the mean of the average chromosome length per cell from 40 cells from metaphase spreads of Brg1^fl/fl and Brg1^fl/fl(ERD) MEFs from two independent experiments.
The cell cycle analysis was performed using BD Biosciences BrdU-FITC FACS kit. ESCs were incubated with BrdU for 1 h and MEFs were incubated with BrdU for 4 h. Brg1^fl/fl and Brg1^fl/fl(ERD) ESCs were analysed 72 h after tamoxifen treatment. Caffeine was added to media 2 h before BrdU incubation. To determine the percent of cells in G2/M, DNA was stained with 7-AAD and analysed by FACS.

[2] = system: NCI60 non small cell lung cancer lines expressing BRG1/BRM or deficient in both; conditions: BRG1/BRM-deficient vs expressing NCI60 lung lines; IC50 (μM) only plotted in FIG. 12A-B; CellMiner data; cited from earlier work
[3] = system: ARID1A wild-type cells (293T and ES2) and ARID1A mutant cells (Hec1b, SKOV3, T47D, and TOV21G); assay: Synthetic lethal screen, Cell Titer Blue viability after treatment with topoisomerase inhibitors; assay type: cell-based; conditions: ARID1A mutant vs wild-type cell lines; IC50 (μM) only plotted in FIG. 11A-C; 72 h after compound addition
Protocol: FIG. 11A-FIG. 11C. Synthetic lethal screen comparing the sensitivity of ARID1A wild-type cells (293T and ES2) and ARID1A mutant cells (Hec1b, SKOV3, T47D, and TOV21G) to treatment with topoisomerase inhibitors. Values of IC50 (μM) are plotted on the y-axis, with error bars as shown. FIG. 11A: treatment with etoposide; FIG. 11B: treatment with doxorubicin; FIG. 11C: treatment with ICRF-193.
In each case, 1500-2000 cells were plated in 100 ul per 384 well clear bottom black plate (E&K Scientific EK-30091). After 24 hours, doses of the listed compound diluted in DMSO were pinned into the plates. After 48 hours, 10 ul of Cell Titer Blue (Promega) was added, and the cells were placed back in the incubator. Fluorescence was read after another 24 hours. IC50 values (μM) are reported on the y-axis.

Molecule	effect on G2/M arrest [1]	sensitivity of cell lines carrying mutations in BAF subunits to the topoisomerase inhibitor [2]	sensitivity of cell lines carrying mutations in BAF subunits to the topoisomerase inhibitor [3]
Cn1c(=O)c2c(ncn2C)n(C)c1=O [Caffeine]	overrides the G2/M arrest		
COc1cccc2c1C(=O)c1c(O)c3c(c(O)c1C2=O)C[C@@](O)(C(=O)CO)C[C@@H]3O[C@H]1C[C@H](N)[C@H](O)[C@H](C)O1 [doxorubicin]		decreased sensitivity	decreased sensitivity
COc1cc([C@@H]2c3cc4c(cc3[C@@H](O[C@@H]3O[C@@H]5CO[C@@H](C)O[C@H]5[C@H](O)[C@H]3O)[C@H]3COC(=O)[C@H]23)OCO4)cc(OC)c1O [etoposide]		decreased sensitivity	decreased sensitivity
ICRF-193			no difference in the sensitivity
